Drawing on PubChem BioAssay AID588407 (The Scripps Research Institute Molecular Screening Center, 2011), this text covers EC50 for 25 molecules.

Structures are written as SMILES. Several values for one entry are separate records, joined by “and”; a condition that tells them apart may be missing. Equal entries are not always repeated. Activity calls are given as the source filed them. How the calls were made is not given here.

Sequence of Mu-type opioid receptor (Homo sapiens) + Delta-type opioid receptor (Homo sapiens) (P35372 whole entry, looked up): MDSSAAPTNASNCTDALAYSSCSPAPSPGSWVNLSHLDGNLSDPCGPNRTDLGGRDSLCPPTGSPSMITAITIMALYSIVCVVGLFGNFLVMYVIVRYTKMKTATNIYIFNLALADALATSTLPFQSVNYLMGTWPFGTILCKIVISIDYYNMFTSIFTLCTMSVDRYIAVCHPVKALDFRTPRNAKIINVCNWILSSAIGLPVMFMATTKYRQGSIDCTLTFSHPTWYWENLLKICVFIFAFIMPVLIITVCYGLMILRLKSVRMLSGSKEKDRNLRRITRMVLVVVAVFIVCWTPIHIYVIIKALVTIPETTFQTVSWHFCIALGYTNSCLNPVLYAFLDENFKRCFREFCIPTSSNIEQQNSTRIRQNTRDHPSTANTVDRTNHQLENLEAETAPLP
Sequence of Mu-type opioid receptor (Homo sapiens) + Delta-type opioid receptor (Homo sapiens) (P41143 whole entry, looked up): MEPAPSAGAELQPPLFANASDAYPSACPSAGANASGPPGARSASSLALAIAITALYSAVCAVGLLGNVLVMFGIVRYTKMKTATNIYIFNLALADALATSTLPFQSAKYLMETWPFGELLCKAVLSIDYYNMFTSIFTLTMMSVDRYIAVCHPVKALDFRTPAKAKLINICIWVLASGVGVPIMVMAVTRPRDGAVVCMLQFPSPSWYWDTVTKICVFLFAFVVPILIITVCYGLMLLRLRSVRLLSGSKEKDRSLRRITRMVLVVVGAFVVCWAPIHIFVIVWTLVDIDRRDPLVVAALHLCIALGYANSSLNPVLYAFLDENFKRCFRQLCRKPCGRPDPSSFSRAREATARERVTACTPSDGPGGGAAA

This experiment concerns the target Mu-type opioid receptor (Homo sapiens) + Delta-type opioid receptor (Homo sapiens) (UniProt P35372+P41143). In words: OPRM1-OPRD1 heterodimer agonist potency – cell-based, luminescence, dose response (AID 588407).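 Further: potency of agonists raising the heterodimer signal.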 Particulars: cells, MOR-DOR heterodimerization.
As to `O=c1c2ccc(Cl)cc2[nH]c(=S)n1Cc1cccnc1`, the EC50 was 8.6 µM. As for `CC(C)c1ccc(NC(=O)N(CCc2nc3ccccc3[nH]2)C2CCCC2)cc1`, the entry is “inactive”; as for `COc1ccc(CNCCc2c[nH]c3ccccc23)c(OC)c1C`, “inactive”; as for `CSC(=Nc1ccccc1)N=C(SCc1ccccc1)N(C)C`, 7.33 µM. The figure for `Cc1cccc(NC(=S)NCC(c2cccnc2)N(C)C)c1C` (stereo not given) is 0.303 µM; for `CCOC(=O)C1(CCOc2ccccc2)CCN(Cc2ccc(C)s2)CC1` it is “inactive”; for `CN(C)C(CNC(=O)NC1CCCCC1)c1cccnc1` (stereo not given) it is 1.27 µM. The figure for `CN(C)C(CNC(=S)Nc1cccc(Cl)c1)c1cccnc1` (stereo not given) is 0.408 µM. As for `Clc1ccc2c(N/N=C/c3ccccc3Br)ccnc2c1`, the EC50 is 9.73 µM. As for `Cc1ccc(C)c(-n2cc(CNCCc3cnccn3)c(-c3ccccc3)n2)c1`, the EC50 was 10 µM.

Turning to `CSCCC(/C(O)=C(\C#N)c1nc2ccccc2[nH]1)N1C(=O)c2ccccc2C1=O` (stereo not given), the EC50 is 9.92 µM. For `COc1cccc(C(=O)Nc2ccc3c(c2)C(=O)c2ccccc2C3=O)c1`, the EC50 is 6.74 µM. The figure for `CCOC(=O)C1(c2ccccc2)CCN(CCC(=O)Nc2ccc(F)cc2)CC1` is 2.36 µM; for `Cc1cccc(NC(=S)NC(=O)CCc2ccccc2)c1` it is > 92.5 µM (inactive); for `CCOC(=O)C1(CC2CCCCO2)CCN(Cc2ccc(OC)cc2F)CC1` (stereo not given) it is “inactive”.

Turning to `CCOC(=O)C1(CCc2ccccc2)CCN(Cc2ccco2)CC1`, the EC50 entry was “inactive”.

Regarding `CC(=O)Nc1ccc(S(=O)(=O)NC2=C(N3CCN(Cc4ccccc4)CC3)C(=O)c3ccccc3C2=O)cc1`, the EC50 was 1.38 µM and 1.63 µM. For the molecule `COC(=O)c1cc2c(n1S(=O)(=O)c1ccc(C)cc1)C(=O)C(=O)c1[nH]cc(C(=O)OCc3ccccc3)c1-2`, the EC50 was 2.56 µM. The figure for `COc1ccc(C(CNC(=O)c2ccc(S(=O)(=O)N(C)C)cc2)N(C)C)cc1` (stereo not given) is 4.57 µM; for `CC1=C/C(=N\OS(=O)(=O)c2ccccc2)C(C)=CC1=O` it is “inactive”. Consider `CN(C)C(CNC(=O)Cc1ccc(Br)cc1)c1ccccc1` (stereo not given), for which the concentration giving a half-maximal response (EC50) was 0.915 µM. As for `CCN1CCN(Cc2ccc(NC(=O)c3ccc(C)c(NC(=O)c4c[nH]c5cc(C(F)(F)F)ccc5c4=O)c3)cc2C(F)(F)F)CC1`, the EC50 is 9.63 µM.

`Cc1cc(/C=C2/C(=O)NN(c3ccccc3)C2=O)c(C)n1-c1ccc(O)cc1`: the EC50 is 8.46 µM.

In the case of `OCC1(CC2CCCCO2)CCN(Cc2ccccc2-c2ccco2)CC1` (stereo not given), the EC50 was 4.76 µM.

As for `CN(C)S(=O)(=O)c1ccc(-c2csc(N/N=C/c3ccc(O)cc3)n2)cc1`, the EC50 is 9.95 µM.

Broadly, the EC50 is the concentration needed to bring the measured effect to its halfway point.
